Results reported in article PMC11364775, “Ion occupancy of the selectivity filter controls opening of a cytoplasmic gate in the K2P channel TALK-2” (Nature Communications, 2024).

Columns and labels:
WT TALK-2 channels = molecular target: T1, WT TALK-2 channels (Homo sapiens, UniProt Q96T54); assay: Conductance-voltage (G-V) curves from tail currents, V1/2 (intracellular Rb+); format: cell-based; parameters: expressed in transfected cells; host or cells: Xenopus laevis oocytes (cRNA injection), excised inside-out patches; conditions: for Normalized current: TALK-2 WT + 1 mM 2-APB
T1 sequence (Q96T54 1-332): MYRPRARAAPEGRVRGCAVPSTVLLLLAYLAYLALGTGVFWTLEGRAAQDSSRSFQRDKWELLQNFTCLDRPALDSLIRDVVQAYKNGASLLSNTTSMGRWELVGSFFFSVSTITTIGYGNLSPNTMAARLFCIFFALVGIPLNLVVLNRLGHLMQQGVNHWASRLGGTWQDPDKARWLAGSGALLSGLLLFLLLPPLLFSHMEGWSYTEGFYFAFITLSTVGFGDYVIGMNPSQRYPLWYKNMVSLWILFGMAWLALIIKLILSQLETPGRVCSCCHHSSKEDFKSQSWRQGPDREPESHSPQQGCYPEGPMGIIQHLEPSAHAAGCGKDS
Source text: The voltage-dependent activation mechanism of the SF gate in K2P channels allows to estimate the electrical work (ΔG = zFΔV1/2) required for pore opening by fitting the G–V curve to a Boltzmann equation. […] The open state represents the situation of both gates being simultaneously open but voltage can only exert force on the SF gate that functions as voltage sensor. […] We further tested whether mutations that open the lower gate (L262A and L264A) would affect the extracellular pH sensitivity. […] We further explored this concept of allosteric coupling using the mutations identified in the functional alanine screen of TM2 and TM4. […]
Conductance-voltage (G–V) relationships were determined from tail currents recorded at a holding potential (VH) of −80 mV after 300 ms depolarizing steps as indicated in the respective figure legend. Data were analyzed with a single Boltzmann fit following Eq. 6:6 GV=Imax/1+e^V−V1/2/slope+Ibase where V1/2 represents the voltage of half-maximal activation, s is the slope factor and Imax and Ibase represent the upper and lower asymptotes. Under appropriate experimental conditions, you can use slope to calculate the valence (charge) of the ion moving across the channel. Slope equals R * T/ z * F where R is the universal gas constant, T is temperature in K, F is the Faraday constant, and z is the valence.

[1] = molecular target: T2, WT TALK-2 channels (human K2P17.1) (Homo sapiens, UniProt Q96T54); assay: Inside-out patch-clamp, ligand activation of channel currents at +40 mV (oocytes)
T2 sequence (Q96T54 1-332): T1 sequence (Q96T54 1-332)
Protocol: Oocytes were surgically removed from anesthetized adult females, treated with type II collagenase (Sigma-Aldrich/Merck, Germany) and manually defolliculated. 50 nl of a solution containing the K^+ channel specific cRNA was injected into Dumont stage V - VI oocytes and subsequently incubated at 17 °C in a solution containing (mM): 54 NaCl, 30 KCl, 2.4 NaHCO3, 0.82 MgSO4 x 7 H2O, 0.41 CaCl2, 0.33 Ca(NO3)2 x 4 H2O and 7.5 TRIS (pH 7.4 adjusted with NaOH/HCl) for 1–7 days before use. Electrophysiological recordings: Excised patch measurements in inside-out configuration under voltage-clamp conditions were performed at room temperature (22 – 24 °C). […] Intracellular bath solutions and compounds were applied to the cytoplasmic side of excised patches for the various K^+ channels via a gravity flow multi-barrel pipette system. Intracellular solution had the following composition (in mM): 120 KCl, 10 HEPES, 2 EGTA and 1 Pyrophosphate (pH adjusted with KOH/HCl). In other intracellular bath solutions, K^+ was replaced by Rb^+ (pH 7.4 adjusted with RbOH/HCl). Currents were recorded with an EPC10 amplifier (HEKA electronics, Germany) and sampled at 10 kHz or higher and filtered with 3 kHz (-3 dB) or higher as appropriate for sampling rate.
Recorded currents were analyzed from stable membrane patches at a voltage defined in the respective figure legend or with a voltage protocol as indicated in the respective figure. The fold activation (fold change in (tail) current amplitude) of a ligand (drug or bioactive lipid) was calculated from Eq. 1:1 Fold activationFA=Iactivated/Ibasal where Iactivated represents the stable current level in the presence of a given concentration of a respective ligand and Ibasal the measured current before ligand application. Percentage inhibition or residual currents upon blocker application for a ligand (drug or bioactive lipid) was calculated from stable currents of excised membrane patches using the following Eqs. 2 and 3:2 %inhibition=1−Iinhibited/Ibasal*100 3 Residual current=100−%inhibition where Iinhibited refers to the stable current level recorded in the presence of a given concentration of a drug or bioactive lipid and Ibasal to the measured current before ligand application. The macroscopic half-maximal concentration-inhibition relationship of a ligand was obtained using a Hill-fit for dose-response curves as depicted in Eq. 4:4 %inhibition/activation=Ibase+Imax−Ibase/1+x1/2/x^rate where base and max are the currents in the absence and presence of a respective ligand, x is the concentration of the ligand, x1/2 is the ligand concentration at which the activatory or inhibitory effect is half-maximal, rate is the Hill coefficient.

NCCOB(c1ccccc1)c1ccccc1 [2-APB, 2-aminoethoxydiphenyl borate]
V1/2 shift (mV) (WT TALK-2 channels; 1 mM 2-APB, shift of G-V curve): 26.9 mV
Normalized current (WT TALK-2 channels; Voltage 0.000): 0.204
Normalized current (WT TALK-2 channels; Voltage 0.005): 0.227
Normalized current (WT TALK-2 channels; Voltage 0.010): 0.255
Normalized current (WT TALK-2 channels; Voltage 0.015): 0.290
Normalized current (WT TALK-2 channels; Voltage 0.020): 0.331
Normalized current (WT TALK-2 channels; Voltage 0.025): 0.376
Normalized current (WT TALK-2 channels; Voltage 0.030): 0.427
Normalized current (WT TALK-2 channels; Voltage 0.035): 0.474
Normalized current (WT TALK-2 channels; Voltage 0.040): 0.520
Normalized current (WT TALK-2 channels; Voltage 0.045): 0.565
Normalized current (WT TALK-2 channels; Voltage 0.050): 0.611
Normalized current (WT TALK-2 channels; Voltage 0.055): 0.652
Normalized current (WT TALK-2 channels; Voltage 0.060): 0.689
Normalized current (WT TALK-2 channels; Voltage 0.065): 0.723
Normalized current (WT TALK-2 channels; Voltage 0.070): 0.754
Normalized current (WT TALK-2 channels; Voltage 0.075): 0.784
Normalized current (WT TALK-2 channels; Voltage 0.080): 0.809
Normalized current (WT TALK-2 channels; Voltage 0.085): 0.834
Normalized current (WT TALK-2 channels; Voltage 0.090): 0.854
Normalized current (WT TALK-2 channels; Voltage 0.095): 0.872
Normalized current (WT TALK-2 channels; Voltage 0.100): 0.891
Normalized current (WT TALK-2 channels; Voltage 0.105): 0.905
Normalized current (WT TALK-2 channels; Voltage 0.110): 0.919
Normalized current (WT TALK-2 channels; Voltage 0.115): 0.931
Normalized current (WT TALK-2 channels; Voltage 0.120): 0.943
Normalized current (WT TALK-2 channels; Voltage 0.125): 0.952
Normalized current (WT TALK-2 channels; Voltage 0.130): 0.961
Normalized current (WT TALK-2 channels; Voltage 0.135): 0.972
Normalized current (WT TALK-2 channels; Voltage 0.140): 0.971
Normalized current (WT TALK-2 channels; Voltage 0.145): 0.979
Normalized current (WT TALK-2 channels; Voltage 0.150): 0.985
Normalized current (WT TALK-2 channels; Voltage 0.155): 0.989
Normalized current (WT TALK-2 channels; Voltage 0.160): 0.992
Normalized current (WT TALK-2 channels; Voltage -0.005): 0.187
Normalized current (WT TALK-2 channels; Voltage -0.010): 0.175
Normalized current (WT TALK-2 channels; Voltage -0.015): 0.167
Normalized current (WT TALK-2 channels; Voltage -0.020): 0.158
Normalized current (WT TALK-2 channels; Voltage -0.025): 0.153
Normalized current (WT TALK-2 channels; Voltage -0.030): 0.148
Normalized current (WT TALK-2 channels; Voltage -0.035): 0.143
Normalized current (WT TALK-2 channels; Voltage -0.040): 0.140
Normalized current (WT TALK-2 channels; Voltage -0.045): 0.136
Normalized current (WT TALK-2 channels; Voltage -0.050): 0.131
Normalized current (WT TALK-2 channels; Voltage -0.055): 0.128
Normalized current (WT TALK-2 channels; Voltage -0.060): 0.125
Normalized current (WT TALK-2 channels; Voltage -0.065): 0.121
Normalized current (WT TALK-2 channels; Voltage -0.070): 0.118
Normalized current (WT TALK-2 channels; Voltage -0.075): 0.115
Normalized current (WT TALK-2 channels; Voltage -0.080): 0.114
Normalized current (WT TALK-2 channels; Voltage -0.085): 0.112
Normalized current (WT TALK-2 channels; Voltage -0.090): 0.113
Normalized current (WT TALK-2 channels; Voltage -0.095): 0.112
Normalized current (WT TALK-2 channels; Voltage -0.100): 0.112
Normalized current (WT TALK-2 channels; Voltage -0.105): 0.111
Normalized current (WT TALK-2 channels; Voltage -0.110): 0.110
Normalized current (WT TALK-2 channels; Voltage -0.115): 0.110
Normalized current (WT TALK-2 channels; Voltage -0.120): 0.111
V1/2 (WT TALK-2 channels; TALK-2 WT, 1 mM ligand): 44.7 mV
EC50 [1]: 421 ± 34 µM
Fold activation 1 mM 2-APB ([1]; 1 mM, TALK-2 WT): 26.51 fold
Normalized currents ([1]; TALK-2 WT, 0.1 µM 2-APB): 0.04
Normalized currents ([1]; TALK-2 WT, 1 µM 2-APB): 0.04
Normalized currents ([1]; TALK-2 WT, 10 µM 2-APB): 0.05
Normalized currents ([1]; TALK-2 WT, 100 µM 2-APB): 0.19
Normalized currents ([1]; TALK-2 WT, 500 µM 2-APB): 0.58
Normalized currents ([1]; TALK-2 WT, 1000 µM 2-APB): 0.87
Normalized currents ([1]; TALK-2 WT, 2000 µM 2-APB): 1.00
